Among the data in patent publication US6903219B2 (dated 2005) are melting point values, retold here.

One may read the melting point as the temperature of the solid-liquid transition.

For `COc1ccnc(C(=O)N[C@H]2COC(=O)[C@H](Cc3ccccc3)[C@@H](OCC(C)C)[C@H](C)OC2=O)c1O`, the melting point lay in the range of 168 to 169 °C.
Under `CCCO[C@H]1[C@H](C)OC(=O)[C@@H](NC(=O)c2nccc(OC)c2O)COC(=O)[C@@H]1Cc1ccccc1` stands 150 to 152 °C.
`C=C(C)CO[C@H]1[C@H](C)OC(=O)[C@@H](NC(=O)c2nccc(OC)c2OCc2ccccc2)COC(=O)[C@@H]1Cc1ccccc1`: the melting point lay within 50 to 52 °C.
Turning to `C=C(C)CO[C@H]1[C@H](C)OC(=O)[C@@H](NC(=O)c2nccc(OC)c2OCOC(C)=O)COC(=O)[C@@H]1Cc1ccccc1`, the melting point was in the range of 102 to 104 °C.
